Results on 14 compounds are retold here after ChEMBL document CHEMBL1134189, “Synthesis and monoamine transporter affinity of 3beta-(4-(2-pyrrolyl)phenyl)-8-azabicycl” (Bioorg Med Chem Lett, 2001).

pIC50, pKi: −log10 of the molar value. Some results are limits rather than exact numbers.

The target in assay [1] is Sodium-dependent serotonin transporter (Rattus norvegicus, UniProt P31652). The assay is described as follows: Displacement of [3H]paroxetine from Serotonin transporter of rat frontal cortex membrane. It is filed as tissue-based.
Sequence of Sodium-dependent serotonin transporter (P31652 whole entry): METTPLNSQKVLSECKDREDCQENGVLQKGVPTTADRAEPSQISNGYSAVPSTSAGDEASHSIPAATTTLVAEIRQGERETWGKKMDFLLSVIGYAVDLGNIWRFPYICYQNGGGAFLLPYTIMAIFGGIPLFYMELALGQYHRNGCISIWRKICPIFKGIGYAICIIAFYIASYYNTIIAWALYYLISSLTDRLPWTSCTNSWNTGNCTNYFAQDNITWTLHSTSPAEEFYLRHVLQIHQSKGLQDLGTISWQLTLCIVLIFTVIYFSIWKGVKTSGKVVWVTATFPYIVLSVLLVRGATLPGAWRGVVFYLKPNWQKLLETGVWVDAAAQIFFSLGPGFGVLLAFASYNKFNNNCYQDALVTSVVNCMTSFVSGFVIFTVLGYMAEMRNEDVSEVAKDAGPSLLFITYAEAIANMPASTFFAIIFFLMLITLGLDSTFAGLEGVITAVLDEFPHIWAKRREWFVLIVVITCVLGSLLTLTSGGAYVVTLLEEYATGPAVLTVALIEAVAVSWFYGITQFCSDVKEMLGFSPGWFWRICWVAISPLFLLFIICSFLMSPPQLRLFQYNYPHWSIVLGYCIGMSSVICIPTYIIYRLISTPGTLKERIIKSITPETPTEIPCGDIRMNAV
For assay [2], the target named is Sodium-dependent dopamine transporter (Rattus norvegicus, UniProt P23977). Description: Displacement of [125I]RTI-55 from Dopamine transporter of rat striatal membrane.
Sequence of Sodium-dependent dopamine transporter (P23977 whole entry): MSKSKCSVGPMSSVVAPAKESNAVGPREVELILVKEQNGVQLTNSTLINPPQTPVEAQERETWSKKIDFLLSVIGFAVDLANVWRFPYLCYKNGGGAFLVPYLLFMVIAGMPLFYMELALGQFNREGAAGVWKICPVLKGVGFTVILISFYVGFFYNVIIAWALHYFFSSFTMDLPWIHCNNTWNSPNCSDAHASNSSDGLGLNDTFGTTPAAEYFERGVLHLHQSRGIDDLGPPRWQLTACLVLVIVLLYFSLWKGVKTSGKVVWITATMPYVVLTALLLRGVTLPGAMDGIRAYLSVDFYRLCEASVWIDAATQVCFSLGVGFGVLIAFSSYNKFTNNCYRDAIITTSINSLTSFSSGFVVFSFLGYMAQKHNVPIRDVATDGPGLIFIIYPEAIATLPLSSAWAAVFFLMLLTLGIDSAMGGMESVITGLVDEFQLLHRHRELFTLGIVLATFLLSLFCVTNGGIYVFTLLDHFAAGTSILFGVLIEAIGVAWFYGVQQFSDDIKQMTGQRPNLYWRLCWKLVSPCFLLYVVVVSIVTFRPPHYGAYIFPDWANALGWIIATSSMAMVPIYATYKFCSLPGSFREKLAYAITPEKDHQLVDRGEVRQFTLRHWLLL
Assay [3] has as its target Monoamine transporters; serotonin & dopamine (Rattus norvegicus) (UniProt P31652+P23977). Description: Relative affinity for serotonin and Dopamine transporters. The assay is classed as protein assay.

Sequence of Monoamine transporters; serotonin & dopamine (Rattus norvegicus) (P23977 whole entry, looked up): as the sequence (P23977 whole entry) above
Sequence of Monoamine transporters; serotonin & dopamine (Rattus norvegicus) (P31652 whole entry, looked up): as the sequence (P31652 whole entry) above

`CCOC(=O)C1C2CCC(CC1c1ccc(-c3cccn3CC)cc1)N2` (centres undefined) had a pKi in assay [1] of 7.80. Also, in assay [2], the pIC50 was < 6.00. In addition, the Ratio in assay [3] was > 63.7.

Consider `CCOC(=O)C1C2CCC(CC1c1ccc3c(ccn3CC)c1)N2` (centres undefined), for which, in assay [1], the pKi was 8.52. The compound further gave a negative logarithm of the IC50 (pIC50) in assay [2] of 8.63. The Ratio in assay [3] came out at 0.78.

Regarding `CCOC(=O)C1C2CCC(CC1c1ccc(-c3ccc(C)n3C)cc1)N2` (centres undefined), the pKi in assay [1] is 7.31. In assay [2], this compound gave a pIC50 of 6.08. Besides, the Ratio in assay [3] was found to be 16.8.

`CCOC(=O)C1C2CCC(CC1c1ccc(-c3ccc(-c4ccccc4)n3C)cc1)N2` (centres undefined) gave a negative-log Ki (pKi) in assay [1] of 6.95. Besides, the pIC50 in assay [2] was < 6.00. Also, the Ratio in assay [3] was > 8.93.

On to `CCOC(=O)C1C(c2ccc(-c3cccn3Cc3ccccc3)cc2)CC2CCC1N2C` (centres undefined), for which, in assay [1], the negative logarithm of the Ki (pKi) is 7.23. For the same compound, the negative logarithm of the IC50 (pIC50) in assay [2] was 7.24. Further, the Ratio in assay [3] stood at 0.98.

`CCOC(=O)C1C2CCC(CC1c1ccc(-c3cccn3Cc3ccccc3)cc1)N2` (centres undefined): the pKi in assay [1] is 8.20. This compound showed a negative logarithm of the IC50 (pIC50) in assay [2] of 7.49. Also, the Ratio in assay [3] is 5.06.

The compound `CCOC(=O)C1C(c2ccc(-c3cccn3CC)cc2)CC2CCC1N2C` (centres undefined) gave a negative-log Ki (pKi) in assay [1] of 6.47. For the same compound, the pIC50 in assay [2] was < 6.00. For the same compound, the Ratio in assay [3] is > 2.97.

Regarding `CCOC(=O)C1C2CCC(CC1c1ccc3c(ccn3C)c1)N2` (centres undefined), the negative-log Ki (pKi) in assay [1] was 8.76. The same compound had a pIC50 in assay [2] of 8.56. Besides, the Ratio in assay [3] is 1.57.

In assay [1], `CCOC(=O)C1C2CCC(CC1c1ccc(-c3c(C)ccn3C)cc1)N2` (centres undefined) had a pKi of 7.31.

In turn, `CCOC(=O)C1C(c2ccc(-c3cccn3C)cc2)CC2CCC1N2C` (centres undefined) had a pKi in assay [1] of 7.59. The same compound showed a pIC50 in assay [2] of 6.15. Further, the Ratio in assay [3] amounted to 27.4.

With `CCOC(=O)C1C(c2ccc(-c3c(C)ccn3C)cc2)CC2CCC1N2C` (centres undefined), the negative-log Ki (pKi) in assay [1] is < 6.00. Besides, in assay [2], the negative logarithm of the IC50 (pIC50) is < 6.00.

The compound `CCOC(=O)C1C2CCC(CC1c1ccc(-c3cccn3C)cc1)N2` (centres undefined) showed a negative-log Ki (pKi) in assay [1] of 8.98. The negative-log IC50 (pIC50) in assay [2] was 6.21. Further, the Ratio in assay [3] is 585.

Turning to `CCOC(=O)C1C(c2ccc3c(ccn3C)c2)CC2CCC1N2C` (centres undefined), the pKi in assay [1] was 8.55. In assay [2], this compound had a pIC50 of 9.12. The Ratio in assay [3] came to 0.26.

Consider `CCOC(=O)C1C(c2ccc3c(ccn3CC)c2)CC2CCC1N2C` (centres undefined), for which the negative-log Ki (pKi) in assay [1] is 8.26. The pIC50 in assay [2] was 8.92. In assay [3], the Ratio is 0.22.
